Values joined by “and” are separate entries in the source; they are usually repeats but may differ in a detail not shown here. Identical values can stand only once.
Key:
[1] = system: Escherichia coli (ATCC 25922); assay: Microbicidal activity against Escherichia coli (suspension test, surviving CFU); format: cell-based; conditions: inoculum 1630000 CFU
Excerpt: Each solution was used alone for the individual controls. Organism suspensions were used to achieve a final target concentration of 2-3×10^6 CFU per ml. For the binary system treatments, sodium hypochlorite solution and hydrogen peroxide solution, non-acidified or acidified, were sequentially added to the microorganisms. Acidified hydrogen peroxide solution was obtained by the addition of 1.0% v/v of 0.001 N hydrochloride solution. After each addition, the resulting mixture was allowed to remain in contact with the organisms for a set amount of time at room temperature (about 22° C.), as listed in the Tables 1 and 2. At the end of the treatment time, the mixtures were neutralized with 200 to 500 microliters of thiosulfate solution (2.4%) to quench the activity of sodium hypochlorite and then treated with 100 to 200 microliters of a 1% catalase solution, containing a minimum of 100 units/ul, to quench the hydrogen peroxide activity. If needed, an appropriate volume of sterile saline was added to bring the final volume of reaction mixture to 1.4 ml after neutralization. Serial dilution plate counts were performed from the contents of each vial in sterile saline and inoculated onto TSA for quantitative culture. Plates were then incubated at 37° C. and counts taken at 24 hours. […]

[2] = system: Bacillus subtilis (ATCC 19659) spores; assay: Microbicidal activity against Bacillus subtilis spores (suspension test, surviving CFU); format: cell-based
Excerpt: Each solution was used alone for the individual controls. Organism suspensions were used to achieve a final target concentration of 2-3×10^6 CFU per ml. For the binary system treatments, sodium hypochlorite solution and hydrogen peroxide solution, non-acidified or acidified, were sequentially added to the microorganisms. Acidified hydrogen peroxide solution was obtained by the addition of 1.0% v/v of 0.001 N hydrochloride solution. After each addition, the resulting mixture was allowed to remain in contact with the organisms for a set amount of time at room temperature (about 22° C.), as listed in the Tables 1 and 2. At the end of the treatment time, the mixtures were neutralized with 200 to 500 microliters of thiosulfate solution (2.4%) to quench the activity of sodium hypochlorite and then treated with 100 to 200 microliters of a 1% catalase solution, containing a minimum of 100 units/ul, to quench the hydrogen peroxide activity. If needed, an appropriate volume of sterile saline was added to bring the final volume of reaction mixture to 1.4 ml after neutralization. Serial dilution plate counts were performed from the contents of each vial in sterile saline and inoculated onto TSA for quantitative culture. Plates were then incubated at 37° C. and counts taken at 24 hours.
Suspensions of Bacillus subtilis (ATCC 19659) containing 100% spores, as confirmed by microscopy, were obtained by washing the spun-down cells with 50% ethanol to eliminate the vegetative form. Starting inoculum of approximately 1-3×10^6 CFU was used as in Example 1.
[…] The binary system was neutralized 30 minutes after addition of hydrogen peroxide using 2.4% thiosulfate and 1% catalase as described in Example 1.

[3] = NaOCl 0.07 mM 60 min, inoculum 1120000 CFU
[4] = NaOCl 0.07 mM 60 min, inoculum 1865000 CFU
[5] = NaOCl 0.07 mM 120 min, inoculum 1865000 CFU
[6] = NaOCl 0.7 mM 60 min, inoculum 1500000 CFU
[7] = NaOCl 0.71 mM 60 min, inoculum 1120000 CFU
[8] = NaOCl 0.71 mM 60 min, inoculum 1865000 CFU
[9] = NaOCl 0.71 mM 120 min, inoculum 1865000 CFU
[10] = NaOCl 3.5 mM 60 min, inoculum 1500000 CFU
[11] = NaOCl 7.0 mM 60 min, inoculum 1500000 CFU
[12] = NaOCl 7.05 mM 60 min, inoculum 1120000 CFU
[13] = NaOCl 7.05 mM 60 min, inoculum 1865000 CFU
[14] = NaOCl 7.05 mM 120 min, inoculum 1865000 CFU
[15] = NaOCl 70.53 mM 60 min, inoculum 1865000 CFU
[16] = NaOCl 70.53 mM 120 min, inoculum 1865000 CFU
[17] = NaOCl 705.27 mM 60 min, inoculum 1865000 CFU
[18] = NaOCl 705.27 mM 120 min, inoculum 1865000 CFU

For `[Na+].[O-]Cl` [NaOCl, sodium hypochlorite], the “Log 10 (CFU + 1) Survivors” value ([1]; NaOCl 0.01 mM 15 min) was 6.1, the “Total Viability (CFU)” value ([1]; NaOCl 0.01 mM 15 min) was 1218000 CFU and the “Log 10 (CFU + 1) Survivors” value ([1]; NaOCl 0.02 mM 15 min) was 5.9. The “Total Viability (CFU)” value ([1]; NaOCl 0.02 mM 15 min) was 784000 CFU, the “Log 10 (CFU + 1) Survivors” value ([1]; NaOCl 0.03 mM 15 min) was 3.0 and the “Total Viability (CFU)” value ([1]; NaOCl 0.03 mM 15 min) was 994 CFU. For the same compound, the “Log 10 (CFU + 1) Survivors” value [2, 3] was 6.2, the “Total Viability (CFU)” value [2, 3] was 1666000 CFU and the “Log 10 (CFU + 1) Survivors” value [2, 4] was 6.3. The “Log Reduction” value [2, 4] was −0.1, the “Total Viability (CFU)” value [2, 4] was 2142000 CFU and the “Log 10 (CFU + 1) Survivors” value [2, 5] was 6.3. The “Log Reduction” value [2, 5] was 0.0, the “Total Viability (CFU)” value [2, 5] was 1834000 CFU and the “Log 10 (CFU + 1) Survivors” value [2, 6] was 3.5. The “Log Reduction” value [2, 6] was 2.7 and 2.66, the “Total Viability (CFU)” value [2, 6] was 3304 CFU and the “Log 10 (CFU + 1) Survivors” value [2, 7] was 3.5. For the same compound, the “Total Viability (CFU)” value [2, 7] was 2898 CFU, the “Log 10 (CFU + 1) Survivors” value [2, 8] was 4.2 and the “Log Reduction” value [2, 8] was 2.1. For the same compound, the “Total Viability (CFU)” value [2, 8] was 14840 CFU, the “Log 10 (CFU + 1) Survivors” value [2, 9] was 3.2 and the “Log Reduction” value [2, 9] was 3.1. The “Total Viability (CFU)” value [2, 9] was 1526 CFU, the “Log 10 (CFU + 1) Survivors” value [2, 10] was 2.7 and the “Log Reduction” value [2, 10] was 3.4 and 3.44. For the same compound, the “Total Viability (CFU)” value [2, 10] was 546 CFU, the “Log 10 (CFU + 1) Survivors” value [2, 11] was 1.3 and the “Log Reduction” value [2, 11] was 4.9 and 4.87. For the same compound, the “Total Viability (CFU)” value [2, 11] was 20 CFU, the “Log 10 (CFU + 1) Survivors” value [2, 12] was 1.3 and the “Total Viability (CFU)” value [2, 12] was 17 CFU. For the same compound, the “Log 10 (CFU + 1) Survivors” value [2, 13] was 1.6, the “Log Reduction” value [2, 13] was 4.6 and the “Total Viability (CFU)” value [2, 13] was 43 CFU. For the same compound, the “Log 10 (CFU + 1) Survivors” value [2, 14] was 0.0, the “Log Reduction” value [2, 14] was 6.3 and the “Total Viability (CFU)” value [2, 14] was 0 CFU. The “Log 10 (CFU + 1) Survivors” value [2, 15] was 0.0, the “Log Reduction” value [2, 15] was 6.3 and the “Total Viability (CFU)” value [2, 15] was 0 CFU. The “Log 10 (CFU + 1) Survivors” value [2, 16] was 0.0, the “Log Reduction” value [2, 16] was 6.3 and the “Total Viability (CFU)” value [2, 16] was 0 CFU. The “Log 10 (CFU + 1) Survivors” value [2, 17] was 0.0, the “Log Reduction” value [2, 17] was 6.3 and the “Total Viability (CFU)” value [2, 17] was 0 CFU. For the same compound, the “Log 10 (CFU + 1) Survivors” value [2, 18] was 0.0, the “Log Reduction” value [2, 18] was 6.3 and the “Total Viability (CFU)” value [2, 18] was 0 CFU. For the same compound, the “microbicidal activity (kill of inoculum)” value ([2]; sodium hypochlorite from 70 mM to 0.07 mM, 60 minutes of exposure, 6.3 log10 CFU inoculum) was “partial kill”.

— patent publication US20070264355A1, “BINARY COMPOSITIONS AND METHODS FOR STERILIZATION” (Binary, LLC, priority 2005, published 2007)
